{"source": "paper PMC10412585", "about": "(Nature Communications, 2023)", "key": {"[1]": {"system": "CD94/NKG2C", "assay": "Steady-state SPR of peptide-HLA-E single chain trimers with CD94/NKG2C", "type": "binding, human", "settings": "from Figure 5C KD values, stated in author rebuttal", "description": "(§1) Specifically, we measured CD94/NKG2A and CD94/NKG2C affinity for HLA-E complexed with three sets of peptides. […] Third, we included […] peptide as a positive control.\n(§2) Steady-state surface plasmon resonance experiments were performed with a Biacore T200 instrument. CD94/NKG2x in HBS-EP+ buffer was injected as analyte in a concentration range of 0.1 μM to 102.4 μM and flow rate of 10 μL/min at 25 °C. Data was fit with Prism 9.4 (GraphPad Software Inc; San Diego CA) to a “one site, specific binding” model. Sensorgrams are included in Supplemental Fig. 13.\n(§3) For investigating WN peptides, biotinylated pMHC was immobilized at approximately 400 Response Units (RU) on a Series S SA sensor chip (Cytiva). […] CD94/NKG2A was injected followed by CD94/NKG2C.\n(§4) For investigating human-derived peptides, Series S CM5 chips (Cytiva) were coupled to neutravidin and utilized. Biotinylated pMHC was immobilized at approximately 400 RU. On one chip, […] CD94/NKG2A was injected followed by CD94/NKG2C. On a second chip, PISD55-63 HLA-E SCT, AKAP6_388-396 HLA-E SCT, GTF3C5_293-301 HLA-E SCT, and reference HLA-DR401 were immobilized. CD94/NKG2C was injected followed by CD94/NKG2A. Rmax, fit values were calculated by Biacore software. Rmax, theoretical values were calculated using the analyte/ligand mass ratio (0.66) multiplied by the amount of ligand coupled to the chip."}, "[2]": {"target": "T1, CD94/NKG2A (Homo sapiens, UniProt P26715+Q13241)", "T1 construct": "The C-terminus of human NKG2A or NKG2C ectodomain was connected via a GGSGGS linker to human CD94 ectodomain; AviTag biotinylation tag (C); poly-histidine tag (C); made in house; host or cells: baculovirus, High Five (Hi5) insect cells", "T1 sequence (Q13241 whole entry, looked up, the tested form may be a part)": "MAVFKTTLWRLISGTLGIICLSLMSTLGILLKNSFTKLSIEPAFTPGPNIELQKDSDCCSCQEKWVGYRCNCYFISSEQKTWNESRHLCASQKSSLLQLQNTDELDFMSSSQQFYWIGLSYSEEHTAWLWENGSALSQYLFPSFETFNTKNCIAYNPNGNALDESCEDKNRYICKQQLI", "T1 sequence (P26715 whole entry, looked up, the tested form may be a part)": "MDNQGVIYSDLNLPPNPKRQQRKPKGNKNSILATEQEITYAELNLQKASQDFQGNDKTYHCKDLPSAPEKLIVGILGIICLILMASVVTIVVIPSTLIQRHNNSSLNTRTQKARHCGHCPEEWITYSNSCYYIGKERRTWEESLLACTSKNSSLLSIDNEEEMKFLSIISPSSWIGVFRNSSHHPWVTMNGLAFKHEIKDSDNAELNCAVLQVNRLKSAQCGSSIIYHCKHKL", "assay": "CD94/NKG2A tetramer staining of yeast-displayed peptide-HLA-E", "type": "binding", "settings": "yeast-displayed single chain trimer, 500 nM tetramer, 2 h, 4 °C, flow cytometry", "source_text": "(§5) To study the diversity of the HLA-E peptide repertoire recognized by CD94/NKG2x, we adapted an MHC yeast surface display system previously used to study class Ia MHC-restricted TCR recognition[25],[26]. In this system, peptide, Beta-2-microglobulin (β2M), and MHC heavy chain are covalently linked to each other and fused to the N-terminus of the yeast mating factor protein Aga2p (Fig. 1A, B). The HLA-E single chain trimer construct expressed well on the yeast surface, as confirmed via staining for an included hemagglutinin (HA) epitope tag and via an anti-HLA-E antibody (Fig. 1C). Since epitope tag staining assesses construct expression rather than protein fold[27]–[29], we tested peptide-HLA-E (pHLA-E) fold by staining with its cognate NK receptors. […] (Supplemental Fig. 1A, E–G), though both receptors were able to bind and enable selective enrichment of […]/HLA-E-expressing yeast using avid streptavidin-coated beads (Supplemental Fig. 1B–D).\n(§6) To stain peptide-HLA-E (pHLA-E) with CD94/NKG2x tetramers, each biotinylated receptor was mixed with streptavidin coupled to AlexaFluor647 (SAV-647, made in-house) at a 5:1 ratio and incubated for 5 min on ice. Yeast were stained with 500 nM tetramer for 2 h at 4 °C in the dark with rotation. […]"}, "[3]": {"system": "CD94/NKG2C", "assay": "CD94/NKG2C tetramer and dextramer staining of yeast-displayed peptide-HLA-E", "type": "binding, human", "settings": "yeast-displayed single chain trimer, 500 nM tetramer, 2 h, 4 °C, flow cytometry", "source_text": "as §5, §6"}, "[4]": {"target": "T1, CD94/NKG2A", "assay": "Steady-state SPR of peptide-HLA-E single chain trimers with CD94/NKG2A", "type": "binding", "settings": "SPR with CD94/NKG2A and CD94/NKG2C, Fig. 5B; taken as lower stability of the peptide-HLA-E complex", "description": "as §1, §2, §3, §4"}, "[5]": {"system": "HLA-E", "assay": "HLA-E surface stabilization assay with RMA-S/HLA-E cells", "type": "cell-based, human", "settings": "peptide 3-300 µM (Fig. 3: 30 µM) in OptiMEM, 16 h, 37 °C, anti-HLA-E 3D12, flow cytometry, n = 4 replicate experiments"}}}
{"sequence": "VMAPRTLFL [positive control]", "values": [{"measurement": "weaker affinity of CD94/NKG2C compared to CD94/NKG2A", "setting": "[1]", "result": "~ 3 fold"}, {"measurement": "weaker affinity of CD94/NKG2C compared to CD94/NKG2A", "setting": "[1]; listed as VL9", "result": "~ 2.7 fold"}, {"measurement": "CD94/NKG2A tetramer staining", "setting": "[2]", "result": "positively stained cells"}, {"measurement": "CD94/NKG2C tetramer and dextramer staining", "setting": "[3]", "result": "minimal signal"}]}
{"sequence": "VNPGRSLFL [BFAR263-271, human peptide from Bifunctional apoptosis regulator]", "values": [{"measurement": "maximal response units (Rmax) compared to theoretical maximum", "setting": "[4]", "result": "lower maximal values compared to the theoretical maximum"}, {"measurement": "stabilization of HLA-E surface expression", "setting": "[5]", "result": "weak but detectable stabilization"}]}
